US20250041307A1, “Uses of Bicyclic Compounds for the Treatment of Diseases” (Athira Pharma, Inc., priority 2021, published 2025)

Assays:
[1] = Parallel artificial membrane permeability assay (PAMPA); assay type: in vitro ADME; details: PBS, room temperature for 5 hours, 200 uM in donor well
Procedure: Bioavailable drugs must permeate the cellular membranes of the lining of the digestive tract. To estimate the penetrability of exemplary compounds, the in vitro parallel artificial membrane permeability assay (PAMPA) was utilized.
Test compounds must have a standard curve in the final read plate to determine partitioned concentration of each drug. A 6-point standard curve was prepared for each compound from 0 to 200 μM in phosphate-buffered saline (PBS).
Test compound solution (300 μL in PBS) was added to the donor (bottom) well of the PAMPA plate in 5 replicates and PBS vehicle (200 μL) was added to the acceptor (top) wells of appropriate wells to match the loading of the donor plate. The bottom and top of the PAMPA plates were then sandwiched together. The PAMPA plates were then incubated at room temperature for 5 hours. After incubation, 150 μL of donor solution was added to a UV compatible plate containing the corresponding standard curve. 150 μL of acceptor well solution was added adjacent to the corresponding standard curve and donor well samples for that compound. The plate was then read using a UV plate reader.
Permeability and membrane retention were then calculated based on the following formulas:
where: • A=filter area (0.3 cm^2); • VD=donor well volume (0.3 mL); • VA=acceptor well volume (0.2 mL); • t=incubation time (seconds); • CA(t)=compound concentration in acceptor well at time t; • CD(t)=compound concentration in donor well at time t; and
where: • CD(t), VD, CA(t), and VA are as defined for equation 1, and • C0=initial concentration in donor well (200 uM).

HGF/MET system = experiment: Phospho-MET ELISA; assay type: cell-based; set-up: key: − indicates that the compound failed to significantly augment MET phosphorylation; + indicates maximum potency at or above 100 nM; ++ indicates maximum potency at or above 10 nM; +++ indicates maximum potency at or above 1 nM; ++++ indicates maximum potency at or above 0.1 nM; details: HEK293 cells; with 1 ng/mL recombinant HGF; 15 minutes; augmentation of MET phosphorylation (pMET ELISA)
Procedure: Compounds were screened for potency towards the HGF/MET system using phospho-MET (pMET) ELISA kits (Cell Signaling). pMET levels were detected in samples having low (1 ng/mL) and high (10 ng/mL) concentrations of HGF.
HEK293 cells were prepared by passage into 6-well multi-plates and grown at 37° C. at 5% CO2 in DMEM+10% FBS until approximately 90% confluent. Cells were then starved for at least 8 hours in serum-free growth media.
Exemplary compounds were prepared in DMEM+0.1% FBS, diluted and added to treatment media with 1 ng/mL recombinant HGF protein (R&D Systems). Cells were incubated in triplicate at 37° C. and 5% CO2 for 15 minutes. Samples were then treated with 180 μL ice-cold RIPA (radioimmunoprecipitation assay) buffer and cells were lysed on ice for 15 minutes. Lysates were cleared by centrifugation at 16,000-g for 15 minutes and the supernatant was retained. Samples were normalized using a BCA assay of lysates to determine protein concentrations across the samples.
Between 50 and 100 μg total protein lysate was loaded into ELISA wells in pMET Sandwich ELISA kit (Cell Signaling Catalog #7227C), ensuring equal protein load in each well. The ELISA was processed according to manufacturer's instructions. After color developed, absorbance was read on an optical plate reader at 450 nm.
Potency measurements were determined using peak efficacy by scaling test compound dose treatments along a scale of 1-10 between 1 ng/mL and 10 ng/mL HGF doses according to the following formula: […]
where y is the normalized data-point, x is the raw data point, A is the mean HGF at 1 ng/mL, and B is the mean HGF at 10 ng/mL.

MDCK cells = experiment: Cell scattering behavior assay; assay type: cell-based; set-up: key: − indicates that the compound failed to significantly promote cell scattering behavior; + indicates maximum potency at or above 100 nM; ++ indicates maximum potency at or above 10 nM; +++ indicates maximum potency at or above 1 nM; ++++ indicates maximum potency at or above 0.1 nM; details: with 5 ng/mL HGF, 24 hours, normalized particle count compared to HGF treatment alone
Procedure: MDCK cells were grown under normal conditions and observed to spontaneously form tight colonies as they proliferate. MDCK cells respond to HGF treatment by moving away from each other (scattering), which is quantified to assess the amount of HGF/MET activation in the cell population. In this experiment, MDCK cells were plated in a 96-well format, treated with HGF and exemplary compounds, fluorescently stained, imaged in large fields, and scattering behavior was quantified. Quantification was determined by analyzing the number of continuous groups of cells compared to the total stained area imaged (normalized particle counts).
MDCK cells were plated at low density in black-walled imaging plates and allowed to attach overnight at 37° C. and 5% CO2 in DMEM+10% FBS. Cells were then starved to 2 hours in DMEM without FBS (“starve media”). Samples containing exemplary compounds were prepared in DMEM without FBS and included 5 ng/mL HGF protein (“treatment media”). A control curve was also prepared for each plate using HGF concentrations of 0, 5, 10, and 20 ng/mL. Starve media was replaced with treatment media and cells were incubated for 24 hours at 37° C. and 5% CO2.
After incubation, cells were fixed by replacing treatment media with cold ethanol and incubating for 20 minutes at 4° C. Cells were then rehydrated by washing with PBS and then with stain solution (fluorescent wheat germ agglutinin; WGA488 at 20 μg/mL in PBS). Cells were incubated with stain solution 30 minutes at room temperature after which stain solution was replaced with fresh PBS.
Fields of cells were imaged using an iCyte high content imager in the green wavelength. Images were converted to binary and analyzed for particle size and particle count. For the purpose of analysis, an individual cell touching no other cells or separated colonies of cells were identified as particles, and particle counts were normalized by the total signal area to account for differences in cell number. […] Compound potency was assessed by statistical increase in normalized particle count compared to HGF treatment alone.

[2] = Turbidimetric solubility assay; assay type: physicochemical; details: PBS (diluted from 10 mM DMSO stock), aqueous buffer, kinetic from dmso stock, 37° C. for 2 hours, dilution series 3 to 300 μM
Procedure: Aqueous solubility is a critical drug property that helps to predict bioavailability. Generally, compounds with aqueous solubility <100 μg/ml are poor drugs.
To assess a compound's solubility by turbidity, test compounds were first dissolved in organic solvent (DMSO) at a concentration of 10 mM. This compound solution was then diluted in aqueous solvent (PBS) in a dilution series from 3 to 300 μM in a 96-well assay plate. Solutions were incubated at 37° C. for 2 hours.
In wells with test compounds over their solubility limit, the compound will precipitate, effectively blocking the passage of light and thus increasing the absorbance signal of UV light at a wavelength of 620 nm. Compounds were considered insoluble at a tested concentration if turbidity raises the absorbance more than 10% above control reads.

[3] = In vitro stability in human plasma; assay type: in vitro ADME; details: 5 μM, 37° C.
Procedure: (§1) Bioavailability can be estimated by compound stability when exposed to conditions in the body. As an initial assessment of stability properties in a variety of conditions present in animals, exemplary compounds were tested for stability in a battery of simulated body compartments. Compounds were tested for stability in the following solutions: simulated gastric fluid (SGF: 34.2 mM NaCl, pH 1.2), simulated gastric fluid with the digestive enzyme pepsin (SGF+Enzyme: SGF with 3.2 mg/ml pepsin), simulated intestinal fluid with the mixture of enzymes in porcine pancreatin (SIF+Enzyme: 28.7 mM NaH2PO4, 105.7 mM NaCl, pH 6.8, 10 mg/ml pancreatin), rat plasma, and human plasma.
(§2) Test compounds were incubated at a final concentration of 5 μM in the above solutions at 37° C. with samples removed at the following time points: 0, 1, 2, and 4 hours. Reactions were stopped and prepared for quantification by addition of excess quench solution containing an internal standard (acetonitrile, 200 ng/mL bucetin). Test compound and internal standard in each sample was quantified by LC-MS/MS, and after internal normalization to bucetin, test compound concentration was expressed as a percentage of concentration at the 0-hour time point. Stability in the relevant test solution was then determined by the percent remaining at the 4-hour time point.

[4] = In vitro stability in rat plasma; assay type: in vitro ADME; details: 5 μM, 37° C.
Procedure: as §1, §2

[5] = In vivo tissue distribution; set-up: species or system Sprague-dawley rats; details: rat, 10 minutes post administration
Procedure: The rate of distribution to target tissues is an important feature of therapeutic molecules. Tissue distribution of exemplary compounds was performed in mixed-sex Sprague-dawley rats. Test compounds were delivered via tail vein injection (IV) and tissues were collected at Tmax (10 minutes post administration). Animals were deeply anesthetized with isoflurane and whole blood was collected from the right atrium and processed by centrifugation to produce plasma. Animals were then fully perfused with PBS administered to the left ventricle to prevent blood contamination of tissues.
Tissues were collected and homogenized, and compound content in the target tissue was quantified by LC-MS/MS. Tissue distribution rates were determined by dividing the tissue concentration of compound by the plasma concentration and multiplying by 100.

[6] = test system: hepatocyte (HepG2) cell cultures; experiment: Cytotoxicity assay (LDH release); assay type: cell-based; details: HepG2 cells, 48 hours, 0.1 to 100 μM
Procedure: This experiment was designed to obtain a preliminary assessment of cytotoxicity.
HepG2 cells were plated in 96-well cell culture plates and allowed to attach overnight at 37° C., 5% CO2 in EMEM+10% FBS. Treatments were made in complete media (EMEM+10% FBS) and included a dilution series of test compounds from 0.1 to 100 μM. Known cytotoxin cerivastatin was used as a positive assay control and prepared at a final concentration of 0.5 μM.
Growth media was replaced with treatment media (EMEM+10% FBS containing test compound dissolved in DMSO) and cells were incubated with test compounds for 48 hours. At the end of the incubation period, supernatant media from each well was transferred to a new plate and LDH assay working solution was added. LDH assay solution undergoes a colorimetric reaction in proportion to the amount of lactate dehydrogenase (an intracellular protein that was only found in the media in the presence of lysed cells) in the media. Color reaction was quantified by measurement of absorbance at a wavelength of 490 nm.
The signal range of the assay was determined by no manipulation in a negative control treatment and full lysis of all cells in a lysis control sample. Compounds that increase the level of cytotoxicity more than 20% above negative control samples were considered cytotoxic in this assay.

[7] = In vitro stability in simulated gastric and intestinal fluids; assay type: in vitro ADME; details: 37° C.
Procedure: as §1, §2

SMILES | Papp at 5 h, 200 uM [1] | solubility at 2 h [2] | Potency (HGF/MET system) | Potency (MDCK cells) | Cytotoxicity [6] | also measured
CCC(C)CN1CC2N(Cc3ccc(O)cc3)CCC(=O)N2[C@@H](C)C1=O (some centres unmarked) [Compound 3a] | < 2 ×10⁻⁶ cm/s | > 300 µM | − | − |  | 
CC1C(=O)N(CC2CCC2)CC2N(C(=O)c3ccc(OC(F)F)cc3)CCC(=O)N12 (centres unmarked) [Compound 14] | > 2 ×10⁻⁶ cm/s |  | ++++ (++++ indicates maximum potency at or above 0.1 nM) |  | ++++ (++++ indicates non-toxic at 100 μM) | Human Plasma, compound remaining after 4 hours [3]: +++ (+++ indicates 80-99% compound remaining after 4 hours); Rat Plasma, compound remaining after 4 hours [4]: +++ (+++ indicates 80-99% compound remaining after 4 hours); Tissue Distribution (% Plasma exposure at 10 min post IV dose) Brain ([5]; brain): ++ (++ indicates distribution between 5 and 39%); Tissue Distribution (% Plasma exposure at 10 min post IV dose) Cerebellum ([5]; cerebellum): ++ (++ indicates distribution between 5 and 39%); Tissue Distribution (% Plasma exposure at 10 min post IV dose) Cortex ([5]; cortex): ++ (++ indicates distribution between 5 and 39%); Tissue Distribution (% Plasma exposure at 10 min post IV dose) Hippocampus ([5]; hippocampus): ++ (++ indicates distribution between 5 and 39%); Tissue Distribution (% Plasma exposure at 10 min post IV dose) Sciatic Nerve ([5]; sciatic nerve): ++ (++ indicates distribution between 5 and 39%); SGF, compound remaining after 4 hours ([7]; simulated gastric fluid pH 1.2, 5 μM): ++ (++ indicates 40-79% compound remaining after 4 hours); SGF + Enz, compound remaining after 4 hours ([7]; simulated gastric fluid with 3.2 mg/ml pepsin, 5 μM): ++ (++ indicates 40-79% compound remaining after 4 hours); SIF, compound remaining after 4 hours ([7]; simulated intestinal fluid pH 6.8 with 10 mg/ml pancreatin, 5 μM): +++ (+++ indicates 80-99% compound remaining after 4 hours)
CC1C(=O)N(CCCC(F)(F)F)CC2N(Cc3ccc(OC(F)F)cc3)CCC(=O)N12 (centres unmarked) [Compound 37] |  | > 300 µM | − |  |  | 
CC1C(=O)N(CCC(F)(F)F)CC2N(Cc3ccc(OC(F)F)cc3)CCC(=O)N12 (centres unmarked) [Compound 52] |  | > 100 µM | − |  |  | 

More lines, main results first:

Papp at 5 h, 200 uM [1] | solubility at 2 h [2] | SMILES | Potency (HGF/MET system) | Potency (MDCK cells) | Cytotoxicity [6] | also measured
< 2 ×10⁻⁶ cm/s |  | CCC(C)CN1CC2N(Cc3ccc(OC(F)F)cc3)CCC(=O)N2C(CC(C)C)C1=O (centres unmarked) [Compound 53, 1-(4-(difluoromethoxy)benzyl)-6-isobutyl-8-(2-methylbutyl)hexahydro-4H-pyrazino[1,2-a]pyrimidine-4,7(6H)-dione] | ++ (++ indicates maximum potency at or above 10 nM) | +++ (+++ indicates maximum potency at or above 1 nM) | +++ (+++ indicates non-toxic at 10 μM) | 
< 2 ×10⁻⁶ cm/s |  | CC1C(=O)N(CCC2CCCC2)CC2N(Cc3ccc(C(F)(F)F)c(Cl)c3)CCC(=O)N12 (centres unmarked) [Compound 54] | − | − | +++ (+++ indicates non-toxic at 10 μM) | 
